Consider ten compounds from patent US20260295053A1, “COMPOUNDS FOR DEGRADATION AND INHIBITION OF KRAS (G12D) PROTEIN” (Shenzhen Ionova Life Science Co., Ltd., priority 2023, published 2026).

SMILES strings stand for the structures.

For orientation: DC50 means the concentration giving 50% degradation. What is called IC50 is the concentration that gives 50% inhibition. A lower IC50 goes with greater potency.

One test has as its target T1, KRAS (G12D) (Homo sapiens, UniProt P01116, G12D).
T1 construct: in-cell western with KRAS G12D antibody after 24 h
The test is described as follows: KRAS (G12D) cellular degradation assay in AsPC-1 cells. In kind it is cell-based. As to conditions: 24 hours, antibody fluorescence (Odyssey CLX), DC50 half-maximal degradation concentration. A digest of the protocol:
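Proliferation IC50 comes from CellTiter Glo luminescence after 6 days' exposure of AsPC-1 (3,500 cells/well) to 1:3 dilutions from […] to 1.5 nM. KRAS G12D DC50 derives from in-cell immunofluorescence normalised to β-actin after 24 h treatment of near-confluent AsPC-1 cells over the same range.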

Another test relates to AsPC-1 cells. Put plainly: AsPC-1 cell proliferation assay (CellTiter Glo). The test is classed as cell-based. The following applies: Homo sapiens, ASPC1, 144 h, 6 days. The method, then: ASPC-1 and PK-59 cellular assays ASPC-1 (ATCC cat. CRL-1682) and PK-59 (Nanjing Cobioer, Cat. No. CBP61184) were used in KRAS cellular degradation, pERK inhibition and proliferation assays. The two cell lines were maintained following vendor's instructions. For monitoring KRAS (G12D) cellular degradation and pERK biomarker inhibition, cells were seeded into a 96-well plate with 22,000 and 16,000 cells/well for assays in ASPC-1 and PK-59, respectively. Cells were incubated at 37° C. with 5% CO2 and cell density was monitored until ^~90% confluency was reached. Compounds were serially diluted at a 1:3 ratio and dispensed into each well at final concentrations ranging from […] to 1.5 nM. After incubation for 24 hours, the culture media were removed and the cells were subjected to fixation, permeabilization and blocking (Intercept blocking buffer, Li-cor). For KRAS (G12D) degradation, the cells were treated with primary antibody (KRAS G12D antibody, Cell Signaling Technologies, Cat. No. CST14429) and for β-actin (β-actin mAb, Beyotime, Cat. No. AF-5001), and followed by secondary antibodies, Anti-rabbit IgG (H+L) (DyLight™ 800 4×PEG Conjugate) or IRDye® 680RD Goat anti-Mouse IgG. For pERK inhibition assay, cells were treated with primary antibodies for pERK (Phospho-p44/42 MAPK (Erk1/2) (Thr202/Tyr204) (D13.14.4E) XP® Rabbit mAb, Cell Signaling Technologies, Cat. No. CST-4370) and β-actin (β-actin mAb, Beyotime, Cat. No. AF-5001), and followed by secondary antibodies, Anti-rabbit IgG (H+L) (DyLight™ 800 4×PEG Conjugate) or IRDye® 680RD Goat anti-Mouse IgG. Fluorescence signals were read on Odyssey CLX instrument. For cell proliferation assays, cells were seeded into a 96-well plate at 3,500 and 800 cells/well for assays in ASPC-1 and PK-59, respectively. Cells were incubated at 37° C. with 5% CO2 for overnight. Compounds were serially diluted at a 1:3 ratio and dispensed into each well at final concentrations ranging from […] to 1.5 nM. After incubation for 6 days, cell viability reagent (CellTiter Glo, Promega, Cat. No. G7573) was added to each well and luminescence was recorded on Molecular Devices Spectramax iD3 instrument. IC50, half-maximal inhibitory concentration for pERK inhibition or cell proliferation, and DC50, half-maximal degradation concentration in KRAS (G12D) cellular degradation were determined by fitting the corresponding dose response curves using GraphPad Prism software.
Wherein “A” means the value <10 nM, “B” means 10 nM<the value <100 nM, “C” means 100 nM<the value <1000 nM, and “D” means the value >1000 nM, in which, the value means the value of DC50 or IC50. NT means not tested.
For orientation: Cellular ATP, detected with luciferase, serves as a proxy for viable cell number.

T1 sequence (P01116 1-188 isoform P01116-2 G12D): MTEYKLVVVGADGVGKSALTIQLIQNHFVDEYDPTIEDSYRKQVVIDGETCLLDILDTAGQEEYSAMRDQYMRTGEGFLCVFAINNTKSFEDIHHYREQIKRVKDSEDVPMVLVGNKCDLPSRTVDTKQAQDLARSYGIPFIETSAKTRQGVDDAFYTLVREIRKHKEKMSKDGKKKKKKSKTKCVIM

Compound `CO[C@H]1C[C@H](Oc2nc(N(C)[C@H]3CCNC3)c3cc(C4CC4)c(-c4c(C)c(F)cc5[nH]ncc45)c(OCc4ccc(-c5cn([C@H](C(=O)N6C[C@H](O)C[C@H]6C(=O)N[C@H](c6ccc(-c7scnc7C)c7c6CC7)[C@H](C)O)C(C)C)nn5)cc4)c3n2)C1` [Example 194, (2S,4R)-1-((2S)-2-(4-(4-(((6-cyclopropyl-7-(6-fluoro-5-methyl-1H-indazol-4-yl)-2-((1r,3S)-3-methoxycyclobutoxy)-4-(methyl((S)-pyrrolidin-3-yl)amino)quinazolin-8-yl)oxy)methyl)phenyl)-1H-1,2,3-triazol-1-yl)-3-methylbutanoyl)-4-hydroxy-N-((1R,2S)-2-hydroxy-1-(5-(4-methylthiazol-5-yl)bicyclo[4.2.0]octa-1(6),2,4-trien-2-yl)propyl)pyrrolidine-2-carboxamide] gave a DC50 on KRAS (G12D) of under 10 nM. The compound also gave an IC50 in the test on AsPC-1 cells of under 10 nM. Consider `CO[C@@H](C)COc1nc(N2C[C@@H]3C[C@H]2CN3)c2cc(C3CC3)c(-c3c(C)c(F)cc4[nH]ncc34)c(OCc3ccc(-c4cn([C@H](C(=O)N5C[C@H](O)C[C@H]5C(=O)N[C@H](C#Cc5nn(C)c6ccccc56)CO)C(C)C)nn4)cc3)c2n1` [Example 71, (2S,4R)-1-((2S)-2-(4-(4-(((4-((1S,4S)-2,5-diazabicyclo[2.2.1]heptan-2-yl)-6-cyclopropyl-7-(6-fluoro-5-methyl-1H-indazol-4-yl)-2-((S)-2-methoxypropoxy)quinazolin-8-yl)oxy)methyl)phenyl)-1H-1,2,3-triazol-1-yl)-3-methylbutanoyl)-4-hydroxy-N—((R)-1-hydroxy-4-(1-methyl-1H-indazol-3-yl)but-3-yn-2-yl)pyrrolidine-2-carboxamide], for which, on KRAS (G12D), the 50% degradation concentration (DC50) was under 10 nM. In addition, the IC50 with AsPC-1 cells was under 10 nM. In the case of `Cc1ncsc1-c1ccc([C@H](CO)NC(=O)[C@@H]2C[C@@H](O)CN2C(=O)[C@H](C(C)C)n2cc(-c3ccc(COc4c(-c5c(C)c(F)cc6[nH]ncc56)c(C5CC5)cc5c(N6C[C@@H]7C[C@H]6CN7)nc(OC6CC7COCC7C6)nc45)cc3)nn2)cc1` (stereo partly drawn) [Example 93, (2S,4R)-1-((2S)-2-(4-(4-(((4-((1S,4S)-2,5-diazabicyclo[2.2.1]heptan-2-yl)-6-cyclopropyl-7-(6-fluoro-5-methyl-1H-indazol-4-yl)-2-((hexahydro-1H-cyclopenta[c]furan-5-yl)oxy)quinazolin-8-yl)oxy)methyl)phenyl)-1H-1,2,3-triazol-1-yl)-3-methylbutanoyl)-4-hydroxy-N—((R)-2-hydroxy-1-(4-(4-methylthiazol-5-yl)phenyl)ethyl)pyrrolidine-2-carboxamide], the DC50 on KRAS (G12D) was under 10 nM. Further, in the test with AsPC-1 cells, the IC50 is under 10 nM.

As for `CCn1nccc1-c1ccc([C@@H](NC(=O)[C@@H]2C[C@@H](O)CN2C(=O)[C@H](C(C)C)n2cc(-c3ccc(COc4c(-c5c(C)c(F)cc6[nH]ncc56)c(C5CC5)cc5c(N6CCCNCC6)nc(OC[C@H](C)OC)nc45)cc3)nn2)[C@H](C)O)cc1` [Example 184, (2S,4R)-1-((2S)-2-(4-(4-(((6-cyclopropyl-4-(1,4-diazepan-1-yl)-7-(6-fluoro-5-methyl-1H-indazol-4-yl)-2-((S)-2-methoxypropoxy)quinazolin-8-yl)oxy)methyl)phenyl)-1H-1,2,3-triazol-1-yl)-3-methylbutanoyl)-N-((1R,2S)-1-(4-(1-ethyl-1H-pyrazol-5-yl)phenyl)-2-hydroxypropyl)-4-hydroxypyrrolidine-2-carboxamide], the DC50 at KRAS (G12D) was under 10 nM. In the test with AsPC-1 cells, the IC50 was under 10 nM. `CCn1nccc1-c1ccc([C@H](CO)NC(=O)[C@@H]2C[C@@H](O)CN2C(=O)[C@H](C(C)C)n2cc(-c3ccc(COc4c(-c5c(C)c(F)cc6[nH]ncc56)c(C5CC5)cc5c(N6CCC(C#N)CC6)nc(OC[C@H](C)OC)nc45)cc3)nn2)cc1` [Example 174, (2S,4R)-1-((2S)-2-(4-(4-(((4-(4-cyanopiperidin-1-yl)-6-cyclopropyl-7-(6-fluoro-5-methyl-1H-indazol-4-yl)-2-((S)-2-methoxypropoxy)quinazolin-8-yl)oxy)methyl)phenyl)-1H-1,2,3-triazol-1-yl)-3-methylbutanoyl)-N—((R)-1-(4-(1-ethyl-1H-pyrazol-5-yl)phenyl)-2-hydroxyethyl)-4-hydroxypyrrolidine-2-carboxamide] registered a half-maximal degradation concentration (DC50) on KRAS (G12D) of 10 to 100 nM. At KRAS (G12D), `Cc1ncsc1-c1ccc([C@H](CO)NC(=O)[C@@H]2C[C@@H](O)CN2C(=O)[C@H](C(C)C)n2cc(-c3ccc(COc4c(-c5c(C)c(F)c(F)c6[nH]ncc56)c(C5CCC5)cc5c(N6C[C@@H]7C[C@H]6CN7)nc(OC6CCOCC6)nc45)cc3)nn2)cc1` [Example 120, (2S,4R)-1-((2S)-2-(4-(4-(((4-((1S,4S)-2,5-diazabicyclo[2.2.1]heptan-2-yl)-6-cyclobutyl-7-(6,7-difluoro-5-methyl-1H-indazol-4-yl)-2-((tetrahydro-2H-pyran-4-yl)oxy)quinazolin-8-yl)oxy)methyl)phenyl)-1H-1,2,3-triazol-1-yl)-3-methylbutanoyl)-4-hydroxy-N—((R)-2-hydroxy-1-(4-(4-methylthiazol-5-yl)phenyl)ethyl)pyrrolidine-2-carboxamide] showed a DC50 of 10 to 100 nM.

For the compound `CO[C@@H](C)COc1nc(N2CCCNCC2)c2cc(C3CC3)c(-c3c(C)c(F)cc4[nH]ncc34)c(OCc3ccc(-c4cn([C@H](C(=O)N5C[C@H](O)C[C@H]5C(=O)N[C@H](CO)c5ccc(-c6scnc6C)c6c5CC6)C(C)C)nn4)cc3)c2n1` [Example 221, (2S,4R)-1-((2S)-2-(4-(4-(((6-cyclopropyl-4-(1,4-diazepan-1-yl)-7-(6-fluoro-5-methyl-1H-indazol-4-yl)-2-((S)-2-methoxypropoxy)quinazolin-8-yl)oxy)methyl)phenyl)-1H-1,2,3-triazol-1-yl)-3-methylbutanoyl)-4-hydroxy-N—((S)-2-hydroxy-1-(5-(4-methylthiazol-5-yl)bicyclo[4.2.0]octa-1(6),2,4-trien-2-yl)ethyl)pyrrolidine-2-carboxamide], the 50% degradation concentration (DC50) at KRAS (G12D) lay within 100 to 1000 nM. The compound `CO[C@@H](C)COc1nc(N2C[C@H]3C[C@@H]2CN3)c2cc(C3CC3)c(-c3c(C)c(F)cc4[nH]ncc34)c(OCc3ccc(-c4cn([C@H](C(=O)N5C[C@H](O)C[C@H]5C(=O)NCc5ccc(-c6scnc6C)cc5)C(C)C)nn4)cc3)c2n1` (single isomer, unassigned) [Example 11B] returned a DC50 at KRAS (G12D) of over 1000 nM. Still for that read-out and setting: the value for `CCn1nccc1-c1ccc([C@H](CO)NC(=O)[C@@H]2C[C@@H](O)CN2C(=O)[C@H](C(C)C)n2cc(-c3ccc(COc4c(-c5c(C)c(F)cc6[nH]ncc56)c(C5CC5)cc5c(N6C[C@@H]7C[C@H]6CN7)nc(N6CCC(COC)C6)nc45)cc3)nn2)cc1` (stereo partly drawn) [Example 125, (2S,4R)-1-((2S)-2-(4-(4-(((4-((1S,4S)-2,5-diazabicyclo[2.2.1]heptan-2-yl)-6-cyclopropyl-7-(6-fluoro-5-methyl-1H-indazol-4-yl)-2-(3-(methoxymethyl)pyrrolidin-1-yl)quinazolin-8-yl)oxy)methyl)phenyl)-1H-1,2,3-triazol-1-yl)-3-methylbutanoyl)-N—((R)-1-(4-(1-ethyl-1H-pyrazol-5-yl)phenyl)-2-hydroxyethyl)-4-hydroxypyrrolidine-2-carboxamide] was 10 to 100 nM; that for `CCn1nccc1-c1ccc([C@H](CO)NC(=O)[C@@H]2C[C@@H](O)CN2C(=O)[C@H](C(C)C)n2cc(-c3ccc(COc4c(-c5c(C)c(F)cc6[nH]ncc56)c(C5CC5)cc5c(N(C)C[C@H]6CCCN6)nc(OC[C@H](C)OC)nc45)cc3)nn2)cc1` [Example 218, (2S,4R)-1-((2S)-2-(4-(4-(((6-cyclopropyl-7-(6-fluoro-5-methyl-1H-indazol-4-yl)-2-((S)-2-methoxypropoxy)-4-(methyl(((R)-pyrrolidin-2-yl)methyl)amino)quinazolin-8-yl)oxy)methyl)phenyl)-1H-1,2,3-triazol-1-yl)-3-methylbutanoyl)-N—((R)-1-(4-(1-ethyl-1H-pyrazol-5-yl)phenyl)-2-hydroxyethyl)-4-hydroxypyrrolidine-2-carboxamide] was over 1000 nM.
